Literature values in PMC6399674 (The Journal of Organic Chemistry, 2019).
Read-outs that look alike come from different tables or passages of the source.

Target: T1, lectin LecA (Pseudomonas aeruginosa, UniProt Q05097)
T1 sequence (Q05097 1-122): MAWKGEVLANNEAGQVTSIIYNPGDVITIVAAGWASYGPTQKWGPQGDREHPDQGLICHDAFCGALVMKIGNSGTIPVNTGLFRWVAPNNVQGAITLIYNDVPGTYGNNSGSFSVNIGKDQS
Details: ITC

Row | Kd | SMILES | n (stoichiometry) | ΔG | ΔH | –TΔS | Kd (as stated in text)
1 |  | O=C[C@H](O)[C@@H](O)[C@@H](O)[C@H](O)CO [D-dalactose, galactose] | 1.1 | –5.5 kcal/mol | –7.9 kcal/mol | 2.3 kcal/mol | 70 to 90 µM
2 | 8.8 µM | OC[C@H]1O[C@@H](Oc2ccccc2)[C@H](O)[C@@H](O)[C@H]1O [Gal-β-OPh] | 0.9 | –6.9 kcal/mol | –11.2 kcal/mol | 4.8 kcal/mol | ~9 µM
